The numbers were not newly measured in PMC8745345, “Hydroxy Pentacyclic Triterpene Acid, Kaempferol, Inhibits the Human 5-Hydroxytryptamine Type 3A Receptor Activity” (International Journal of Molecular Sciences, 2022), which cites them from elsewhere.

The test system of this data set is 5-HT3A. As to conditions: cited from earlier work.

For the compound `Cc1nccn1CC1CCc2c(c3ccccc3n2C)C1=O` (stereo not drawn) [ondansetron], the mode of antagonism entry is “competitive antagonist”. Further, the IC50 (in general, the concentration that gives 50% inhibition) (5-HT3 antagonist potency) was 4.9 nM. Moreover, the “efficacy of antagonist against I5-HT(100uM) of 5-HT3A” value (serotonin 100 uM) was ~100%.
